Source: patent publication US20090233895A1, “METHOD OF TREATMENT OF BACTERIAL INFECTIONS” (Ethypharm, priority 2006, published 2009)

Legend:
E. coli GR2 = assay: modified Hollow T-Tube in vitro model simulating antibacterial treatment with oral cefaclor in humans over 24 hours; format: cell-based, Escherichia coli; details: for Observed Δt > MIC / Δt > MIC: percentage of the dosage interval
Protocol: The bacteria stem from one strain of Escherichia coli, species that is considered to be non-constantly sensitive. The strain was obtained from M.-H. Nicolas (Hôpital Ambroise Paré, Paris, France) under the code E. coli GR2 with MIC of […]. The usual breakpoints with cefaclor for E. coli are ≦2 mg/l for sensitive strains and >8 mg/l for resistant strains, according to CA-SFM (Comité de l'Antibiogramme de la Société Française de Microbiologie).
The culture media is a Müller-Hinton Broth (MHB) obtained from Pasteur diagnostic (reference 69444). The starting inoculum of E. coli in the culture media is 10^7±5% CFU/ml. The E. coli concentration is measured by nephelometry (Densimat, ref. 99535 ver. A, Biomérieux, France) and standard dilution method.
(§1) The counting of E. coli present in the culture medium was measured in vitro in a model simulating the antibacterial treatment with oral beta-lactamine in humans over 24 hours.
(§2) The model simulating the antibacterial treatment used in the examples is a modified “Hollow T-Tube”-model, originally described by Cappellety et al. (Pharmacodynamics of ceftazidime administered as continuous infusion or intermittent bolus alone or in combination with single daily-dose amikacine against Pseudomonas aeruginosa in an in vitro infection model, A.A.C., 1995, 33: 1797-1801) and modified by the inventors (Louchahi et al. A procedure to mimic human impaired kinetic profiles of antibiotics with the hollow glass T-tube in vitro pharmacodynamic model, Abstract no 2116, p. 234, 39th ICAAC, Sep. 26-29, 1999, San Francisco).
In all experiments the period during which, after the addition of cefaclor, the concentration of cefaclor was above the MIC was measured (Δt>MIC). The result is expressed as percentage of the dosage interval.
The variation of the bacterial count was regularly registered during 24 hours. The result is expressed as ΔUFC/ml. For every experiment, the negative sign is highlighting the decreasing count with time since it corresponds to the difference between the initial inoculum at T0 and final bacterial count at T 24 h.

[1] = cefaclor concentration profile (t1/2, cmax) observed in the modified Hollow T-Tube in vitro model
Protocol: as §1, §2
Three different elimination half-lives were simulated: • 1. t1/2=45-50 min, which corresponds to a conventional immediate release form of cefaclor, • 2. t1/2=55-60 min, which corresponds to a conventional sustained release form of cefaclor, • 3. t1/2=90-100 min, which corresponds to an extended release form of cefaclor according to the present invention.

[2] = E1.1: expected t1/2 45-50 min, 500 mg, interval 8 h
[3] = E1.2: expected t1/2 55-60 min, 750 mg, interval 12 h
[4] = E1.3: expected t1/2 90-100 min, 500 mg, interval 8 h
[5] = E1.4: expected t1/2 90-100 min, 750 mg, interval 12 h
[6] = E1.5: expected t1/2 90-100 min, 750 mg, interval 8 h
[7] = E2.1: simulated poor absorber, 500 mg, interval 8 h
[8] = E2.2: simulated standard absorber, 500 mg, interval 8 h
[9] = E2.3: simulated good absorber, 500 mg, interval 8 h

SMILES: N[C@@H](C(=O)N[C@@H]1C(=O)N2C(C(=O)O)=C(Cl)CS[C@H]12)c1ccccc1 [cefaclor, cefaclor monohydrate]
- Δ UFC/ml by 24 h (E. coli GR2; [2]): −1.5 log
- Observed Δt > MIC (E. coli GR2; [2]): 50%
- Δ UFC/ml by 24 h (E. coli GR2; [3]): −1.5 log
- Observed Δt > MIC (E. coli GR2; [3]): 30-35%
- Δ UFC/ml by 24 h (E. coli GR2; [4]): −4 log
- Observed Δt > MIC (E. coli GR2; [4]): 75%
- Δ UFC/ml by 24 h (E. coli GR2; [5]): −1.5 log
- Observed Δt > MIC (E. coli GR2; [5]): 58%
- Δ UFC/ml by 24 h (E. coli GR2; [6]): >−5 log
- Observed Δt > MIC (E. coli GR2; [6]): 87%
- Δ UFC/ml by 24 h (E. coli GR2; [7]): −3 log
- Δt > MIC (E. coli GR2; [7]): 50%
- Δ UFC/ml by 24 h (E. coli GR2; [8]): −4 log
- Δt > MIC (E. coli GR2; [8]): 75%
- Δ UFC/ml by 24 h (E. coli GR2; [9]): −5 log
- Δt > MIC (E. coli GR2; [9]): 87%
- Observed t1/2 ([1]; E1.1: expected t1/2 45-50 min, 500 mg cefaclor, dosage interval 8 h): 46 min
- Observed t1/2 ([1]; E1.2: expected t1/2 55-60 min, 750 mg cefaclor, dosage interval 12 h): 58 min
- Observed t1/2 ([1]; E1.3: expected t1/2 90-100 min, 500 mg cefaclor, dosage interval 8 h): 100 min
- Observed t1/2 ([1]; E1.4: expected t1/2 90-100 min, 750 mg cefaclor, dosage interval 12 h): 101 min
- Observed t1/2 ([1]; E1.5: expected t1/2 90-100 min, 750 mg cefaclor, dosage interval 8 h): 92 min
- Observed t1/2 ([1]; E2.1: simulated poor absorber, expected t1/2 90-100 min, 500 mg, interval 8 h): 96 min
- Observed t1/2 ([1]; E2.2: simulated standard absorber, expected t1/2 90-100 min, 500 mg, interval 8 h): 100 min
- Observed t1/2 ([1]; E2.3: simulated good absorber, expected t1/2 90-100 min, 500 mg, interval 8 h): 92 min
